Patent US20110190122A1, “Triazole and Imidazole Compounds, Use Thereof and Agents Containing Them” (BASF SE, priority 2008, published 2011)

Legend:
Phakopsora pachyrhizi [1] = assay: Curative activity against soybean rust caused by Phakopsora pachyrhizi (Example G2, sprayed directly after 24 h incubation); type: in vivo; conditions: soybean seedlings, 300 ppm aqueous active compound preparation, sprayed to runoff after 24 h incubation, assessed after a further 14 days; untreated plants 90% infected
Description: (§1) The active compounds were prepared separately or together as a stock solution with 25 mg of active compound, which was made up to 10 ml with a mixture of acetone and/or DMSO and the emulsifier Uniperol® EL (wetting agent with emulsifying and dispersant action based on ethoxylated alkylphenols) in the volume ratio solvent/emulsifier of 99 to 1. Subsequently, it was made up to 100 ml with water. This stock solution was diluted with the described solvent/emulsifier/water mixture to the active compound concentration indicated below. Alternatively to this, the active compounds were used as a commercially available ready-to-use solution and diluted with water to the active compound concentration indicated.
Leaves of soybean seedlings grown in pots were inoculated with a spore suspension of soybean rust (Phakopsora pachyrhizi). The pots were then placed in a chamber of high atmospheric humidity (90 to 95%) and 23 to 27° C. for 24 hours. During this time, the spores germinated and the germ tubes penetrated into the leaf tissue. The infected plants were then sprayed to runoff point with the active compound solution described above at the active compound concentration indicated below. […] The extent of the rust fungus development on the leaves was then determined visually in % infections.

Phakopsora pachyrhizi [2] = assay: Curative activity against soybean rust caused by Phakopsora pachyrhizi (Example G1, sprayed two days after incubation); type: in vivo; conditions: soybean seedlings, 300 ppm aqueous active compound preparation, sprayed to runoff two days after 24 h incubation, assessed after a further 10 days; untreated plants 90% infected
Description: as §1
Leaves of soybean seedlings grown in pots were inoculated with a spore suspension of soybean rust (Phakopsora pachyrhizi). The pots were then placed in a chamber of high atmospheric humidity (90 to 95%) and 23 to 27° C. for 24 hours. During this time, the spores germinated and the germ tubes penetrated into the leaf tissue. The infected plants were then cultivated further in a greenhouse at temperatures between 23 and 27° C. and 60 to 80% relative atmospheric humidity. After two days, the plants were sprayed to runoff point with the active compound solution described above at the active compound concentration indicated below. After the spray coating had dried on, the test plants were cultivated in a greenhouse at temperatures between 23 and 27° C. and 60 to 80% relative atmospheric humidity for a further 10 days. The extent of the rust fungus development on the leaves was then determined visually in % infections.

Row | SMILES | infection (extent of the rust fungus development on the leaves, determined visually) (Phakopsora pachyrhizi [1]) [%] | infection (extent of the rust fungus development on the leaves, determined visually) (Phakopsora pachyrhizi [2]) [%]
1 | CC(C)[C@H](O)[C@@H](CCCCOc1cccc(F)c1F)n1nc[nH]c1=S (racemic) [I.A1, (RS,SR)-2-[5-(2,3-difluorophenoxy)-1-(1-hydroxy-2-methylpropyl)pentyl]-2,4-dihydro[1,2,4]triazole-3-thione] | 0 | 
2 | CC(C)[C@H](O)[C@@H](CCCCOc1cccc(Cl)c1Cl)n1nc[nH]c1=S (racemic) [I.A2, (RS,SR)-2-[5-(2,3-dichlorophenoxy)-1-(1-hydroxy-2-methylpropyl)pentyl]-2,4-dihydro[1,2,4]triazole-3-thione] |  | 0
3 | CC(C)[C@H](O)[C@@H](CCCCOc1ccc(Cl)cc1Cl)n1nc[nH]c1=S (racemic) [I.A3, (RS,SR)-2-[5-(2,4-dichlorophenoxy)-1-(1-hydroxy-2-methylpropyl)pentyl]-2,4-dihydro[1,2,4]triazole-3-thione] |  | 0
4 | CC(C)[C@H](O)[C@@H](CCCCOc1cc(F)ccc1F)n1nc[nH]c1=S (racemic) [I.A4, (RS,SR)-2-[5-(2,5-difluorophenoxy)-1-(1-hydroxy-2-methylpropyl)pentyl]-2,4-dihydro[1,2,4]triazole-3-thione] |  | 0
